Measurements: patent US20240384268A1, “Oligonucleotides” (Hudson Institute of Medical Research, priority 2021, published 2024)
In the oligonucleotide strings, read from the 5' end, every base follows the letter of its sugar. An asterisk marks phosphorothioate; unmarked linkages are phosphodiester. Other units and linkages are bracketed, terminal groups are in braces. A string of capitals states the bases alone. d = 2'-deoxy (DNA); m = 2'-O-methyl

target: cGAS (Homo sapiens, UniProt Q8N884); experiment: ISD70-driven IP-10 (and IFN-β) production in THP-1 cells, ELISA; assay type: cell-based; design: endogenous in cells; host or cells: THP-1 (undifferentiated); conditions: MOE-modified ASO at 100 nM; averaged IP-10 levels relative to ISD70 condition
Sequence (Q8N884 whole entry): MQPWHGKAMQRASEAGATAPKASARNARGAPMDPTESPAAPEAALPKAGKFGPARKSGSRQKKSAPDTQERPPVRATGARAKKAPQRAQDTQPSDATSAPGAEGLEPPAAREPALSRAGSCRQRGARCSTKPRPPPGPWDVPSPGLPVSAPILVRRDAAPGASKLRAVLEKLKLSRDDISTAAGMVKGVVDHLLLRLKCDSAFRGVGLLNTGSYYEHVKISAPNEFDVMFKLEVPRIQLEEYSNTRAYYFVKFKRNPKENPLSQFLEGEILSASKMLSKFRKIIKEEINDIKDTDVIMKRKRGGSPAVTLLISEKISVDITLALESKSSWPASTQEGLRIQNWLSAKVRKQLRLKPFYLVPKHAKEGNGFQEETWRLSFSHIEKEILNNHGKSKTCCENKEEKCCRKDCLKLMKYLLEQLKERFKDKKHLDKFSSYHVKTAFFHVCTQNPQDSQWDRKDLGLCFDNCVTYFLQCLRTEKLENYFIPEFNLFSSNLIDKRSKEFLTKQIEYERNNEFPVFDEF

Substance | cGAS 100 nM
AGTCGTAGTTGCTTCCTAAC (antisense; 2'-MOE modified, pattern not given here) [MB21D1-1181 MOE] | 0.261
ATGCCATCCACTTGATAGGC (antisense; 2'-MOE modified, pattern not given here) [EGFR-2874 MOE] | 0.639
CGGAGGTCTTGGCTTCGTGG (antisense; 2'-MOE modified, pattern not given here) [MB21D1-525 MOE] | 0.111
CGGCATCCACCACGTCGTCC (antisense; 2'-MOE modified, pattern not given here) [EGFR-3267 MOE] | 0.378
GCCCATCCATGAGGTCCTGG (antisense; 2'-MOE modified, pattern not given here) [CTNN2B-2545 MOE] | 0.592
GCTGACAAAGATTCACTGGT (antisense; 2'-MOE modified, pattern not given here) [HPRT-1353 MOE] | 0.335
GGGTATCGAAAGAGTCTGGA (antisense; 2'-MOE modified, pattern not given here) [EGFR-3908 MOE] | 0.427
GGTTTTGGCTGGGATCAAGT (antisense; 2'-MOE modified, pattern not given here) [CAMSAP1-4697 MOE] | 0.375
GTCCAAGATCAGCAGTCTCA (antisense; 2'-MOE modified, pattern not given here) [CTNN2B-2341 MOE] | 0.705
TCCGGCCTCGGAAGCTCTCT (antisense; 2'-MOE modified, pattern not given here) [MB21D1-168 MOE] | 0.250
TGGCAGGCTCAGTGATGTCT (antisense; 2'-MOE modified, pattern not given here) [CTNN2B-1642 MOE] | 0.605
TGGGCTGGAATCCGAGTTAT (antisense; 2'-MOE modified, pattern not given here) [EGFR-4705 MOE] | 0.433
TGGGTTACGGCTCAGTATGG (antisense; 2'-MOE modified, pattern not given here) [CAMSAP1-4295 MOE] | 0.432
TTTGCACACTTCGTACCCAA (antisense; 2'-MOE modified, pattern not given here) [CAMSAP1-4916 MOE] | 0.335

same assay, conditions: THP-1; 100 nM ASO overnight, then ISD70 2.5 μg/ml 7-8 h; percentage of ISD70 only

Substance | cGAS-100 nM: averaged IP-10 levels relative to ISD70
mA*mA*mA*mA*mG*A*T*T*A*T*C*T*T*C*T*mU*mU*mU*mA*mA (AAAAGATTATCTTCTUUUAA; sugars from the 5' end m5 d10 m5, all phosphorothioate, methylation of C not given here) [[CDKN2B-AS1]2133] | 57.68%
mA*mA*mA*mA*mU*A*A*G*G*G*G*A*A*T*A*mG*mG*mG*mG*mA (mA*mA*mA*mA*mU*dA*dA*dG*dG*dG*dG*dA*dA*dT*dA*mG*mG*mG*mG*mA; antisense) [[CDKN2B-AS1]79] | 94.10%
mA*mA*mA*mG*mA*T*T*A*T*C*T*T*C*T*T*mU*mU*mA*mA*mU (mA*mA*mA*mG*mA*dT*dT*dA*dT*dC*dT*dT*dC*dT*dT*mU*mU*mA*mA*mU) [[CDKN2B-AS1]2132] | 74.59%
mA*mA*mA*mU*mG*T*C*C*T*G*G*C*C*C*T*mC*mA*mC*mU*mG (mA*mA*mA*mU*mG*dT*dC*dC*dT*dG*dG*dC*dC*dC*dT*mC*mA*mC*mU*mG) [[LINC-PINT]148.1] | 66.46%
mA*mA*mG*mA*mU*T*A*T*C*T*T*C*T*T*T*mU*mA*mA*mU*mU (mA*mA*mG*mA*mU*dT*dA*dT*dC*dT*dT*dC*dT*dT*dT*mU*mA*mA*mU*mU) [[CDKN2B-AS1]2131] | 73.50%
mA*mA*mG*mG*mU*G*G*C*C*A*C*A*G*G*C*mA*mA*mC*mG*mU (mA*mA*mG*mG*mU*dG*dG*dC*dC*dA*dC*dA*dG*dG*dC*mA*mA*mC*mG*mU; antisense) [[CDKN2B-AS1]2198] | 60.48%
mA*mA*mU*mA*mU*C*T*G*C*T*G*C*C*C*A*mC*mC*mU*mU*mC (mA*mA*mU*mA*mU*dC*dT*dG*dC*dT*dG*dC*dC*dC*dA*mC*mC*mU*mU*mC; antisense) [[CDKN2B-AS1]832] | 83.17%
mA*mA*mU*mU*mU*A*A*A*G*C*A*T*G*A*A*mU*mA*mU*mU*mA (mA*mA*mU*mU*mU*dA*dA*dA*dG*dC*dA*dT*dG*dA*dA*mU*mA*mU*mU*mA) [[CDKN2B-AS1]645] | 67.63%
mA*mC*mC*mC*mU*T*C*T*C*T*C*T*G*G*T*mC*mC*mC*mA*mU (mA*mC*mC*mC*mU*dT*dC*dT*dC*dT*dC*dT*dG*dG*dT*mC*mC*mC*mA*mU; antisense) [[LINC-PINT]115] | 89.81%
mA*mG*mA*mA*mA*G*A*A*G*C*A*A*A*G*A*mU*mU*mC*mA*mA (AGAAAGAAGCAAAGAUUCAA; sugars from the 5' end m5 d10 m5, all phosphorothioate, methylation of C not given here) [[CDKN2B-AS1]1519] | 49.09%
mA*mG*mA*mU*mU*A*T*C*T*T*C*T*T*T*T*mA*mA*mU*mU*mU (AGAUUATCTTCTTTTAAUUU; sugars from the 5' end m5 d10 m5, all phosphorothioate, methylation of C not given here) [[CDKN2B-AS1]2130] | 55.80%
mA*mG*mC*mC*mG*A*A*C*A*G*A*A*G*G*A*mG*mC*mG*mU*mC (AGCCGAACAGAAGGAGCGUC; sugars from the 5' end m5 d10 m5, all phosphorothioate, methylation of C not given here) [[LINC-PINT]587 KL] | 39.92%
mA*mG*mG*mA*mU*T*A*A*A*A*C*A*G*A*T*mU*mA*mA*mU*mA (mA*mG*mG*mA*mU*dT*dA*dA*dA*dA*dC*dA*dG*dA*dT*mU*mA*mA*mU*mA) [[CDKN2B-AS1] 1775] | 88.54%
mA*mG*mG*mC*mC*T*C*C*A*G*T*G*T*C*T*mU*mC*mU*mC*mC (mA*mG*mG*mC*mC*dT*dC*dC*dA*dG*dT*dG*dT*dC*dT*mU*mC*mU*mC*mC; antisense) [[CDKN2B-AS1]2218] | 62.85%
mA*mU*mA*mU*mC*T*G*C*T*G*C*C*C*A*C*mC*mU*mU*mC*mU (AUAUCTGCTGCCCACCUUCU; antisense; sugars from the 5' end m5 d10 m5, all phosphorothioate, methylation of C not given here) [[CDKN2B-AS1]831] | 108.01%
mA*mU*mG*mA*mC*A*T*T*T*C*G*T*G*G*C*mU*mC*mC*mU*mA (mA*mU*mG*mA*mC*dA*dT*dT*dT*dC*dG*dT*dG*dG*dC*mU*mC*mC*mU*mA) [[LINC-PINT]524.1] | 99.38%
mC*mA*mA*mG*mC*C*C*C*A*G*C*G*T*T*C*mC*mU*mC*mC*mG (mC*mA*mA*mG*mC*dC*dC*dC*dA*dG*dC*dG*dT*dT*dC*mC*mU*mC*mC*mG; antisense) [[LINC-PINT]83.1] | 77.10%
mC*mA*mC*mC*mC*T*T*C*T*C*T*C*T*G*G*mU*mC*mC*mC*mA (CACCCTTCTCTCTGGUCCCA; antisense; sugars from the 5' end m5 d10 m5, all phosphorothioate, methylation of C not given here) [[LINC-PINT]116] | 97.19%
mC*mA*mC*mU*mG*T*A*T*T*T*T*A*T*T*A*mC*mA*mG*mA*mA (mC*mA*mC*mU*mG*dT*dA*dT*dT*dT*dT*dA*dT*dT*dA*mC*mA*mG*mA*mA; antisense) [[LINC-PINT]2990] | 69.47%
mC*mA*mG*mG*mC*C*T*C*C*A*G*T*G*T*C*mU*mU*mC*mU*mC (mC*mA*mG*mG*mC*dC*dT*dC*dC*dA*dG*dT*dG*dT*dC*mU*mU*mC*mU*mC; antisense) [[CDKN2B-AS1]2219] | 99.38%
mC*mA*mU*mC*mC*C*T*T*C*T*G*C*T*G*C*mC*mA*mA*mG*mC (mC*mA*mU*mC*mC*dC*dT*dT*dC*dT*dG*dC*dT*dG*dC*mC*mA*mA*mG*mC; antisense) [[LINC-PINT]98] | 70.60%
mC*mC*mA*mU*mC*C*C*T*T*C*T*G*C*T*G*mC*mC*mA*mA*mG (mC*mC*mA*mU*mC*dC*dC*dT*dT*dC*dT*dG*dC*dT*dG*mC*mC*mA*mA*mG; antisense) [ILING-PINT199] | 85.43%
mC*mC*mA*mU*mG*T*C*C*C*A*G*G*C*C*T*mC*mC*mA*mG*mU (CCAUGTCCCAGGCCTCCAGU; sugars from the 5' end m5 d10 m5, all phosphorothioate, methylation of C not given here) [[CDKN2B-AS1]2227] | 36.34%
mC*mC*mC*mU*mA*A*T*G*C*T*T*T*C*C*T*mC*mU*mC*mC*mA (mC*mC*mC*mU*mA*dA*dT*dG*dC*dT*dT*dT*dC*dC*dT*mC*mU*mC*mC*mA; antisense) [[LINC-PINT1877 KL] | 89.09%
mC*mC*mC*mU*mU*C*T*C*T*C*T*G*G*T*C*mC*mC*mA*mU*mC (mC*mC*mC*mU*mU*dC*dT*dC*dT*dC*dT*dG*dG*dT*dC*mC*mC*mA*mU*mC; antisense) [[LINC-PINT]114] | 84.38%
mC*mC*mU*mA*mG*A*A*A*G*A*A*G*C*A*A*mA*mG*mA*mU*mU (mC*mC*mU*mA*mG*dA*dA*dA*dG*dA*dA*dG*dC*dA*dA*mA*mG*mA*mU*mU) [[CDKN2B-AS1]1522] | 60.90%
